Reference: US20120076846A1, “Pyrethroid Compound, Preparation Process and Use Thereof” (priority 2009, published 2012)

Key:
[1] = test system: female Culex pipiens pallens; assay: Efficacy of pesticide incense coils on mosquito (GB13917.4-92, airtight cask); assay type: in vivo; details: for KT50: pesticide incense coil, 0.04 w/w % active ingredient, ignited and removed after 1 min, 20 female mosquitoes; for relative efficacy compared with dimefluthrin: incense coil 0.04 w/w %, from KT50 of table 1
Experimental: To a mixture of corn starch, carbon powder and wood flour (1:5:4, 99.96 parts by weight) was added water (120 parts by weight) and the resulting mixture was kneaded, and then dried to give a pesticide incense coil substrate (diameter: 12.0 cm; thickness: 4 mm; one pair of substrates' weight: 40 g).
On the other hand, a 0.4 w/v % solution of compound 1 in kerosene was prepared.
The above solution (4 ml) was uniformly sprayed on the incense coil substrate with a micro-syringe, and then kept for airing at room temperature for 3 hours to get of a pesticide incense coil I containing compound 1 according to the present invention (0.04 w/w %).
Similarly, a 0.4 w/v % solution of compound 2 in kerosene was prepared and a pesticide incense coil II containing compound 2 (0.04 w/w %) was be obtained.
A 0.4 w/v % solution of compound 3 in kerosene was prepared and a pesticide incense coil III containing compound 3 (0.04 w/w %) was obtained;
A 0.4 w/v % solution of compound 4 in kerosene was prepared and a pesticide incense coil IV containing compound 4 (0.04 w/w %) was obtained;
A 0.4 w/v % solution of compound 6 in kerosene was prepared and a pesticide incense coil V containing compound 6 (0.04 w/w %) was obtained;
A 0.4 w/v % solution of dimefluthrin in kerosene was prepared and a pesticide incense coil VI containing dimefluthrin (0.04 w/w %) was obtained.
The efficacy of pesticide coils I-Vi on mosquito were tested and compared according to GB13917.4-92). In particular, the test pests are female Culex pipiens pallens (2-3 days old, fasten). Firstly, 20 test mosquitoes were captured and put into airtight cask testing device with a mosquito-sucking tube, a section of pesticide incense coil to be tested was put on shelves, then ignited and removed after 1 min.

Blattella germanica = assay: Efficacy of aerosol pesticide on blattella germanica (GB13917.2-92); assay type: in vivo; details: 1 g sprayed
Experimental: (§1) Compound 1 (0.3 parts by weight) and kerosene (59.7 parts by weight) are mixed under heating to prepare a pesticide. The pesticide was placed in aerosol cans with a valve and then a mixture of propane and butane (40.0 parts by weight) was injected into tank through the valve at positive pressure to get an aerosol pesticide, which contains […] compound 1.
(§2) The efficacy of the aerosol pesticide on Mosquitoes, flies and blattella germanicas were tested according to GB13917.2-92. In particular, the test pests were placed into a tank. After all test pests restored normal activities, 1 g aerosol pesticide from aerosol cans was sprayed into the tank. Take the barrier plate away to make pests exposed to the aerosol pesticide and the number of killed pests was recorded at regular intervals, then all test pests were transferred to a clean cage after 20 mins, the number of dead pests was counted after 24 hours and the mortality of blattella germanicas at 72 h was determined.

Fly = assay: Efficacy of aerosol pesticide on fly (GB13917.2-92); assay type: in vivo; details: 1 g sprayed
Experimental: as §1, §2

sanitary pests = assay: Efficacy comparison of stereoisomers in controlling sanitary pests (experiments not detailed); details: for efficacy of isomer relative to other isomers: qualitative statement from applicant's study
Mosquito [2] = assay: Efficacy of aerosol pesticide on mosquito (GB13917.2-92); assay type: in vivo; details: 1 g sprayed
Experimental: as §1, §2

Mosquito [3] = assay: Volatile agent on filter paper hung on the door of a room, mosquito invasion; assay type: in vivo; details: 1 mg on filter paper 20 cm×50 cm, volatilised at room temperature, hung on edge of door
Experimental: Compound 6 (2,3,5,6-tetrafluoro-4-methoxymethylbenzyl-1R, trans-(Z)-3-(3,3,3-trifluoro-1-prop ylene)-2,2-dimethylcyclopropane carboxylate, 1 mg) was dissolved in acetone (20 ml) to obtain a solution. The resulting solution was distributed on a filter paper (20 cm×50 cm) and air-dried to remove the acetone to obtain a volatile agent.

[4] = aerosol pesticide from compound 1 (0.3 parts by weight)
[5] = aerosol pesticide, 20 min exposure, 24 h

Row | Compound | KT50 [1] | relative efficacy compared with dimefluthrin [1] | efficacy of isomer relative to other isomers (sanitary pests) | further results
1 | COCc1c(F)c(F)c(COC(=O)[C@H]2C(/C=C/C(F)(F)F)C2(C)C)c(F)c1F (stereo partly drawn) [Compound 4, 2,3,5,6-tetrafluoro-4-methoxymethylbenzyl-1S-(E)-3-(3,3,3-trifluoro-1-propenyl)-2,2-dimethylcyclopropane carboxylate] | 8.2 min | – | – | –
2 | COCc1c(F)c(F)c(COC(=O)[C@@H]2C(/C=C/C(F)(F)F)C2(C)C)c(F)c1F (stereo partly drawn) [Compound 2, 2,3,5,6-tetrafluoro-4-methoxymethylbenzyl-1R-(E)-3-(3,3,3-trifluoro-1-propenyl)-2,2-dimethylcyclopropane carboxylate] | 5.2 min | – | – | –
3 | COCc1c(F)c(F)c(COC(=O)[C@@H]2C(/C=C\C(F)(F)F)C2(C)C)c(F)c1F (stereo partly drawn) [Compound 1, 2,3,5,6-tetrafluoro-4-methoxymethylbenzyl-1R-(Z)-3-(3,3,3-trifluoro-1-propenyl)-2,2-dimethylcyclopropane carboxylate] | 3.2 min | more than twice that of dimefluthrin | highly active isomer | KT50 (mosquito/fly/cockroach) (Blattella germanica; [4]): 6.2 min; Mortality (72 h) (Blattella germanica; aerosol pesticide, 20 min exposure, 72 h): 90%; KT50 (mosquito/fly/cockroach) (Fly; [4]): 4.3 min; Mortality during 24 h (Fly; [5]): 100%; cross resistance compared to traditional pyrethroid products such as allethrin (sanitary pests; control of sanitary pests): doesn't have cross resistance; KT50 (mosquito/fly/cockroach) (Mosquito [2]; [4]): 4.8 min; Mortality during 24 h (Mosquito [2]; [5]): 100%
4 | COCc1c(F)c(F)c(COC(=O)C2C(C=C(C)C)C2(C)C)c(F)c1F (stereo not drawn) [Dimefluthrin, dimefluthrin, reference compound] | 7.6 min | – | – | –
5 | COCc1c(F)c(F)c(COC(=O)[C@@H]2[C@@H](/C=C\C(F)(F)F)C2(C)C)c(F)c1F (relative stereo) [Compound 6, 2,3,5,6-tetrafluoro-4-methoxymethylbenzyl-1R, trans-(Z)-3-(3,3,3-trifluoro-1-propenyl)-2,2-dimethyl cyclopropane carboxylate] | 3.1 min | more than twice that of dimefluthrin | slightly better than the cis isomer | mosquito invasion of a room (Mosquito [3]): None mosquito invaded
6 | COCc1c(F)c(F)c(COC(=O)[C@H]2C(/C=C\C(F)(F)F)C2(C)C)c(F)c1F (stereo partly drawn) [Compound 3, 2,3,5,6-tetrafluoro-4-methoxymethylbenzyl-1S-(Z)-3-(3,3,3-trifluoro-1-propenyl)-2,2-dimethyl cyclopropane carboxylate] | 5.1 min | – | – | –
